Laboratory results published in the supplement of paper PMC10307832.

How the values were obtained:
Assay in all cases: relative viability (nuclei count vs DMSO), 5 days (fraction); higher = more cells survive
IU1-47 + Olaparib = compound: CC1=CC(=C(N1C2=CC=C(C=C2)Cl)C)C(=O)CN3CCCCC3 [IU1-47] + O=C(c1cc(Cc2n[nH]c(=O)c3ccccc23)ccc1F)N1CCN(C(=O)C2CC2)CC1 [Olaparib] (partner 8 µM)
Procedure, shortened: (§1)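 Lung cancer cell lines were seeded in 1536-well plates and dosed by pin tool the next day, with either a single drug or a fixed anchor-drug dose combined with five library-drug doses (not always all listed) spaced in √10 steps. Five days later, one step fixed the cells and stained their nuclei (final 0.05% Triton X-100, 1% formaldehyde, 1 ug/ml Hoechst), and nuclei were counted on 4× images. Relative viability is the nuclei count in treated wells divided by the count in vehicle wells, and each value is the median of duplicate plates.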

IU1-47 + Bortezomib = compound: CC1=CC(=C(N1C2=CC=C(C=C2)Cl)C)C(=O)CN3CCCCC3 [IU1-47] + CC(C)C[C@H](NC(=O)[C@H](Cc1ccccc1)NC(=O)c1cnccn1)B(O)O [Bortezomib] (partner 0.002 µM)
Procedure, shortened: as §1

IU1-47 + Tozasertib = compound: CC1=CC(=C(N1C2=CC=C(C=C2)Cl)C)C(=O)CN3CCCCC3 [IU1-47] + Cc1cc(Nc2cc(N3CCN(C)CC3)nc(Sc3ccc(NC(=O)C4CC4)cc3)n2)n[nH]1 [Tozasertib] (partner 0.1 µM)
Procedure, shortened: as §1

IU1-47 + Lapatinib = compound: CC1=CC(=C(N1C2=CC=C(C=C2)Cl)C)C(=O)CN3CCCCC3 [IU1-47] + CS(=O)(=O)CCNCc1ccc(-c2ccc3ncnc(Nc4ccc(OCc5cccc(F)c5)c(Cl)c4)c3c2)o1 [Lapatinib] (partner 2 µM)
Procedure, shortened: as §1

NCI-H1651
relative viability (IU1-47 + Olaparib; first compound 0.08 µM): 0.155
relative viability (IU1-47 + Olaparib; first compound 0.253 µM): 0.162
relative viability (IU1-47 + Olaparib; first compound 0.8 µM): 0.17
relative viability (IU1-47 + Olaparib; first compound 2.53 µM): 0.183
relative viability (IU1-47 + Olaparib; first compound 8 µM): 0.185
relative viability (IU1-47 + Bortezomib; first compound 0.08 µM): 0.988
relative viability (IU1-47 + Bortezomib; first compound 0.253 µM): 0.977
relative viability (IU1-47 + Bortezomib; first compound 0.8 µM): 0.995
relative viability (IU1-47 + Bortezomib; first compound 2.53 µM): 0.946
relative viability (IU1-47 + Bortezomib; first compound 8 µM): 0.89
relative viability (IU1-47 + Tozasertib; first compound 0.08 µM): 0.717
relative viability (IU1-47 + Tozasertib; first compound 0.253 µM): 0.58
relative viability (IU1-47 + Tozasertib; first compound 0.8 µM): 0.753
relative viability (IU1-47 + Tozasertib; first compound 2.53 µM): 0.72
relative viability (IU1-47 + Tozasertib; first compound 8 µM): 0.762
relative viability (IU1-47 + Lapatinib; first compound 0.08 µM): 0.735
relative viability (IU1-47 + Lapatinib; first compound 0.253 µM): 0.743
relative viability (IU1-47 + Lapatinib; first compound 0.8 µM): 0.913
relative viability (IU1-47 + Lapatinib; first compound 8 µM): 0.943

LCLC-97TM1
relative viability (IU1-47 + Olaparib; first compound 0.08 µM): 0.44
relative viability (IU1-47 + Olaparib; first compound 0.253 µM): 0.461
relative viability (IU1-47 + Olaparib; first compound 0.8 µM): 0.352
relative viability (IU1-47 + Olaparib; first compound 8 µM): 0.21
relative viability (IU1-47 + Bortezomib; first compound 0.08 µM): 0.9
relative viability (IU1-47 + Bortezomib; first compound 0.253 µM): 1.13
relative viability (IU1-47 + Bortezomib; first compound 0.8 µM): 0.455
relative viability (IU1-47 + Bortezomib; first compound 2.53 µM): 0.425
relative viability (IU1-47 + Bortezomib; first compound 8 µM): 0.261
relative viability (IU1-47 + Tozasertib; first compound 0.08 µM): 0.217
relative viability (IU1-47 + Tozasertib; first compound 0.253 µM): 0.235
relative viability (IU1-47 + Tozasertib; first compound 0.8 µM): 0.251
relative viability (IU1-47 + Tozasertib; first compound 2.53 µM): 0.358
relative viability (IU1-47 + Tozasertib; first compound 8 µM): 0.198
relative viability (IU1-47 + Lapatinib; first compound 0.08 µM): 1.34
relative viability (IU1-47 + Lapatinib; first compound 0.253 µM): 0.635
relative viability (IU1-47 + Lapatinib; first compound 0.8 µM): 0.92
relative viability (IU1-47 + Lapatinib; first compound 8 µM): 0.78

NCI-H727
relative viability (IU1-47 + Olaparib; first compound 0.08 µM): 0.661
relative viability (IU1-47 + Olaparib; first compound 0.253 µM): 0.729
relative viability (IU1-47 + Olaparib; first compound 0.8 µM): 0.691
relative viability (IU1-47 + Olaparib; first compound 2.53 µM): 0.64
relative viability (IU1-47 + Olaparib; first compound 8 µM): 0.66
relative viability (IU1-47 + Bortezomib; first compound 0.08 µM): 0.742
relative viability (IU1-47 + Bortezomib; first compound 0.8 µM): 1.13
relative viability (IU1-47 + Bortezomib; first compound 2.53 µM): 0.979
relative viability (IU1-47 + Bortezomib; first compound 8 µM): 0.704
relative viability (IU1-47 + Tozasertib; first compound 0.08 µM): 0.655
relative viability (IU1-47 + Tozasertib; first compound 0.253 µM): 0.562
relative viability (IU1-47 + Tozasertib; first compound 0.8 µM): 0.589
relative viability (IU1-47 + Tozasertib; first compound 2.53 µM): 0.58
relative viability (IU1-47 + Tozasertib; first compound 8 µM): 0.568
relative viability (IU1-47 + Lapatinib; first compound 0.08 µM): 0.762
relative viability (IU1-47 + Lapatinib; first compound 0.8 µM): 1.11
relative viability (IU1-47 + Lapatinib; first compound 2.53 µM): 0.642
relative viability (IU1-47 + Lapatinib; first compound 8 µM): 0.833

NCI-H1355
relative viability (IU1-47 + Olaparib; first compound 0.08 µM): 0.781
relative viability (IU1-47 + Olaparib; first compound 0.253 µM): 0.826
relative viability (IU1-47 + Olaparib; first compound 0.8 µM): 0.751
relative viability (IU1-47 + Olaparib; first compound 8 µM): 0.781
relative viability (IU1-47 + Bortezomib; first compound 0.08 µM): 1.3
relative viability (IU1-47 + Bortezomib; first compound 0.253 µM): 1.21
relative viability (IU1-47 + Bortezomib; first compound 0.8 µM): 1.33
relative viability (IU1-47 + Bortezomib; first compound 2.53 µM): 0.978
relative viability (IU1-47 + Bortezomib; first compound 8 µM): 1.16
relative viability (IU1-47 + Tozasertib; first compound 0.08 µM): 0.483
relative viability (IU1-47 + Tozasertib; first compound 0.253 µM): 0.606
relative viability (IU1-47 + Tozasertib; first compound 0.8 µM): 0.506
relative viability (IU1-47 + Tozasertib; first compound 8 µM): 0.546
relative viability (IU1-47 + Lapatinib; first compound 0.08 µM): 1.11
relative viability (IU1-47 + Lapatinib; first compound 0.253 µM): 1.11
relative viability (IU1-47 + Lapatinib; first compound 0.8 µM): 1.08
relative viability (IU1-47 + Lapatinib; first compound 2.53 µM): 0.627
relative viability (IU1-47 + Lapatinib; first compound 8 µM): 0.983

HOP-62
relative viability (IU1-47 + Olaparib; first compound 0.08 µM): 0.428
relative viability (IU1-47 + Olaparib; first compound 0.253 µM): 0.622
relative viability (IU1-47 + Olaparib; first compound 0.8 µM): 0.404
relative viability (IU1-47 + Olaparib; first compound 2.53 µM): 0.554
relative viability (IU1-47 + Olaparib; first compound 8 µM): 0.604
relative viability (IU1-47 + Bortezomib; first compound 0.08 µM): 0.926
relative viability (IU1-47 + Bortezomib; first compound 0.253 µM): 1.05
relative viability (IU1-47 + Bortezomib; first compound 0.8 µM): 0.701
relative viability (IU1-47 + Bortezomib; first compound 2.53 µM): 0.753
relative viability (IU1-47 + Bortezomib; first compound 8 µM): 0.77
relative viability (IU1-47 + Tozasertib; first compound 0.08 µM): 0.351
relative viability (IU1-47 + Tozasertib; first compound 0.253 µM): 0.404
relative viability (IU1-47 + Tozasertib; first compound 0.8 µM): 0.384
relative viability (IU1-47 + Tozasertib; first compound 2.53 µM): 0.412
relative viability (IU1-47 + Tozasertib; first compound 8 µM): 0.354
relative viability (IU1-47 + Lapatinib; first compound 0.08 µM): 1.14
relative viability (IU1-47 + Lapatinib; first compound 0.253 µM): 1.01
relative viability (IU1-47 + Lapatinib; first compound 0.8 µM): 1.12
relative viability (IU1-47 + Lapatinib; first compound 2.53 µM): 0.844
relative viability (IU1-47 + Lapatinib; first compound 8 µM): 0.954

NCI-H2085
relative viability (IU1-47 + Olaparib; first compound 0.08 µM): 0.777
relative viability (IU1-47 + Olaparib; first compound 0.253 µM): 0.763
relative viability (IU1-47 + Olaparib; first compound 0.8 µM): 0.747
relative viability (IU1-47 + Olaparib; first compound 2.53 µM): 0.768
relative viability (IU1-47 + Olaparib; first compound 8 µM): 0.742
relative viability (IU1-47 + Bortezomib; first compound 0.08 µM): 0.969
relative viability (IU1-47 + Bortezomib; first compound 0.253 µM): 0.968
relative viability (IU1-47 + Bortezomib; first compound 0.8 µM): 1.06
relative viability (IU1-47 + Bortezomib; first compound 2.53 µM): 0.948
relative viability (IU1-47 + Bortezomib; first compound 8 µM): 0.944
relative viability (IU1-47 + Tozasertib; first compound 0.08 µM): 0.903
relative viability (IU1-47 + Tozasertib; first compound 0.253 µM): 0.79
relative viability (IU1-47 + Tozasertib; first compound 0.8 µM): 0.705
relative viability (IU1-47 + Tozasertib; first compound 2.53 µM): 0.835
relative viability (IU1-47 + Tozasertib; first compound 8 µM): 0.774
relative viability (IU1-47 + Lapatinib; first compound 0.08 µM): 0.7
relative viability (IU1-47 + Lapatinib; first compound 0.253 µM): 0.77
relative viability (IU1-47 + Lapatinib; first compound 0.8 µM): 0.941
relative viability (IU1-47 + Lapatinib; first compound 2.53 µM): 0.681
relative viability (IU1-47 + Lapatinib; first compound 8 µM): 0.685
